Results published in PubChem BioAssay AID1219 (NMMLSC, 2008).
Records with an inconclusive call do not appear. Active and inactive are the calls of the source.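 Rule for the calls: active = score of 100, fluorescent reporter fully moved to nucleus as with estrogen, or estrogen effect fully blocked; inactive = score of 0 or 50, partial or no effect.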

target: G-protein coupled estrogen receptor 1 (Homo sapiens) (UniProt Q99527); assay: PH-RFP redistribution after GPER stimulation – imaging, Cos7 GPR30-GFP, Akt PH domain, orthogonal assay for GPR30 ligand project, confirmation (AID 1219); settings: PIP3 nuclear translocation imaging, at 10 µM, stronger effect = higher value

Row | SMILES | translocation response score
1 | Nc1ncnc2c1ncn2C1CCC(CO)C(O)C1 (configuration not stated) | 50 (inactive)
2 | O=C(O)c1cc(Cl)c2c(c1)[C@@H]1C=CC[C@@H]1[C@H](c1ccc(S(=O)(=O)N3CCOCC3)cc1)N2 | 50 (inactive)
3 | Cc1cc(-c2nn3c(-c4ccccc4)nnc3s2)c2ccccc2n1 | 100
4 | COc1cccc(NS(=O)(=O)c2ccc3c(c2)C2C=CCC2C(c2ccc(C(=O)O)cc2)N3)c1 (configuration not stated) | 50 (inactive)
5 | O=C(O)c1ccc2c(c1)C1C(Cl)C(Sc3ccccc3[N+](=O)[O-])CC1C(c1cccc([N+](=O)[O-])c1)N2 (configuration not stated) | 0 (inactive)
6 | COc1ccccc1N1CCN(C(=O)c2ccc3nc(-c4ccco4)c(-c4ccco4)nc3c2)CC1 | 100
7 | Cc1cc(C)c2c(c1)[C@@H]1C=CC[C@@H]1[C@H](c1ccc(S(=O)(=O)N3CCOCC3)cc1)N2 | 100
